Consider one compound from patent US20080064668A1, “1,3-Diacylated, 26,27-Alkyl/Haloakyl Vitamin D3 Compounds and Methods of Use Thereof” (BioXell S.p.A., priority 2003, published 2008).

The test relates to NHEK. The test is described as follows: Proliferation assay, NHEK normal human keratinocytes. The note with it: Homo sapiens, NHEK; 72 h culture, CyQuant proliferation assay. The class given is cell-based. On the procedure: Bladder cancer cell lines (T24, RT112, HT1376 and RT4 are human bladder cancer cell lines; NHEK are normal human keratinocytes) were obtained from the European Collection of Cell Cultures (Salisbury, UK). Cells were plated at 3×10^3 per well, in flat bottomed 96-well plates in 100 μl of DMEM medium containing: 5% Fetal Clone I, 50 μg/l gentamicin, 1 mM sodium pyruvate and 1% non-essential amino acids. After culturing for 24 h at 37° C. in 5% CO2, to allow cells to adhere to the plates, VDR ligands (compounds (2), (4), (5) and other vitamin D3 analogs as shown in Table 4) were added at concentrations ranging from 100 μM to 0.3 μM in 100 μl of above-mentioned complete medium. After a further 72 h of culture, cell proliferation was measured using a fluorescence-based proliferation assay kit. (CyQuant Cell Proliferation Assay Kit, Molecular Probes, Eugene, Oreg., USA). The IC50 was calculated from the regression curve of the titration data.

Compound `CC(=O)OC1C/C(=C/C=C2\CCC[C@]3(C)C(C(C)C/C=C\C(O)(C(F)(F)F)C(F)(F)F)=CCC23)C[C@@H](OC(C)=O)C1` (stereo partly shown) [Compound (2), 1,3-Di-O-acetyl-1,25-dihydroxy-16,23Z-diene-26,27-hexafluoro-19-nor-cholecalciferol] displayed an IC50 of 9.8 µM.

Broadly, the IC50 is the concentration that gives 50% inhibition. Read a high IC50 as lower potency.
